Laboratory results as given in ChEMBL document CHEMBL4145500, “First homology model of Plasmodium falciparum glucose-6-phosphate dehydrogenase: Discovery of selective substrate analog-based inhibitors as novel antimalarial agents” (Eur J Med Chem, 2018).

Experiments:
Plasmodium falciparum = test: Antiparasitic activity against Plasmodium falciparum Dd2 clone MRA-150 synchronized ring stage after 48 hrs by PicoGreen dye based microfluorimetric analysis; format: functional, organism-based; settings: Dd2 clone MRA-150, 48 h
[1] = Cytotoxicity against human HepG2 cells assessed as cell survival at 0.2 to 1 mM after 24 hrs by EZ4U staining-based spectrophotometric analysis relative to control; settings: read-out: Survival
[2] = Cytotoxicity against human HepG2 cells assessed as cell viability at 1.5 to 2 mM after 24 hrs by EZ4U staining-based spectrophotometric analysis relative to control; settings: read-out: Activity
[3] = Selectivity index, ratio of Ki for recombinant full length human G6PD to Ki for Plasmodium falciparum G6PD-6PGL
[4] = target: T1, Glucose-6-phosphate 1-dehydrogenase (Homo sapiens, UniProt P11413); test: Inhibition of recombinant full length human G6PD expressed in Escherichia coli HB351 using G6P as substrate in presence of NADP+ by spectrofluorimetric analysis
[5] = target: T2, Bifunctional glucose-6-phosphate 1-dehydrogenase/6-phosphogluconolactonase (Plasmodium falciparum (isolate 3D7), UniProt Q8IKU0); test: Inhibition of Plasmodium falciparum G6PD-6PGL using G6P as substrate in presence of NADP+ by spectrofluorimetric analysis
T2 sequence (Q8IKU0 whole entry): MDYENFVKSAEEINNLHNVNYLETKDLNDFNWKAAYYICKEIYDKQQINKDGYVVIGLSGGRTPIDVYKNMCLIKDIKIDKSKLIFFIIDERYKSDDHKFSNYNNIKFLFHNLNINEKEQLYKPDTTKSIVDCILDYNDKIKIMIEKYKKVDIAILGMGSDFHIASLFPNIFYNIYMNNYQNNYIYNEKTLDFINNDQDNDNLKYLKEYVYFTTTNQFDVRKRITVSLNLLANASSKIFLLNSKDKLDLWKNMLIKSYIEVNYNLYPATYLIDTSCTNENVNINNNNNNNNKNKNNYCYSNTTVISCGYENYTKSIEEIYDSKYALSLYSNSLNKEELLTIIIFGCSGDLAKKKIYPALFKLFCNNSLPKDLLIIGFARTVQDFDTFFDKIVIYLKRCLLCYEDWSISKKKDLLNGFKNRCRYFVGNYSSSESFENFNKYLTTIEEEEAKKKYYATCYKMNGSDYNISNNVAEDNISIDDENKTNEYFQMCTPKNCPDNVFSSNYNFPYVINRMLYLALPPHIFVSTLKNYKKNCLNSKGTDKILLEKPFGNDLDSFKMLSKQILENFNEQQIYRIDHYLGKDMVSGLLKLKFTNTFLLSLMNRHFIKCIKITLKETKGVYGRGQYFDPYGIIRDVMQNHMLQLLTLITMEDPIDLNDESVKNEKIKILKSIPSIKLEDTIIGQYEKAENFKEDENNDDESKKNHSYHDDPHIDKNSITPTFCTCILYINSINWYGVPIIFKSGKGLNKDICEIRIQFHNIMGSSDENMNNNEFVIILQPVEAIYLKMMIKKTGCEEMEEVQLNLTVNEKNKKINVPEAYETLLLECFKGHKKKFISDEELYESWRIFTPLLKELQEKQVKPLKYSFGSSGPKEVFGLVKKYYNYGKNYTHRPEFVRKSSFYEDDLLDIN

[6] = target: T2, Bifunctional glucose-6-phosphate 1-dehydrogenase/6-phosphogluconolactonase; test: Competitive inhibition of Plasmodium falciparum G6PD-6PGL using G6P as substrate in presence of NADP+ by Lineweaver-Burk plot analysis
[7] = target: T1, Glucose-6-phosphate 1-dehydrogenase; test: Competitive inhibition of recombinant full length human G6PD expressed in Escherichia coli HB351 using G6P as substrate in presence of NADP+ by Lineweaver-Burk plot analysis

T1 sequence (P11413 whole entry): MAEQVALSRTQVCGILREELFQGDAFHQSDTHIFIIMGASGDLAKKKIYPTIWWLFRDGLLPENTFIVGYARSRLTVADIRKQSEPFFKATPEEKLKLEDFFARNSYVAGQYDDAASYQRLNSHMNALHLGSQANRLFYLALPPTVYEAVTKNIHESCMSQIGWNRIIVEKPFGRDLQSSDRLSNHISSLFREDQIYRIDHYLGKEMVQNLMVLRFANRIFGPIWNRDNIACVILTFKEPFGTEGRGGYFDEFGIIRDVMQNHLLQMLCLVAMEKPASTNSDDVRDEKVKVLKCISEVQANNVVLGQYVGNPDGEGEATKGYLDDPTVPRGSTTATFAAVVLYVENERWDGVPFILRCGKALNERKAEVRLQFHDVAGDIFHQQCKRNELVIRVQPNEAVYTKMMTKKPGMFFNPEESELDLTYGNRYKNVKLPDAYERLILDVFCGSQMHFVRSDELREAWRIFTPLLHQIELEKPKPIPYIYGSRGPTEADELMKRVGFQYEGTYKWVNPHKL

Row | SMILES | IC50 (Plasmodium falciparum) | viability at 24 h, up to 1000 µM [1] | viability at 24 h, 2000 µM [2] | Ratio Ki [3] | Ki [4] | Ki [5] | IC50 [6] | IC50 [7]
1 | CO[C@H]1O[C@H](CNS(=O)(=O)CCNC(=N)N)[C@@H](O)[C@H](O)[C@H]1O | 330 µM | > 80% | < 80% | 0.5 | 16.8 µM | 32.4 µM |  | 
2 | CCN1CCC[C@@H]1CNC(=O)c1ccc2c(c1)NC(=O)c1cccc(C)c1S2 |  |  |  |  |  |  | 0.19 µM | > 80 µM
3 | CO[C@H]1O[C@H](CNS(=O)(=O)CCN)[C@@H](O)[C@H](O)[C@H]1O | 1470 µM | > 80% |  | > 18 | > 400 µM | 22.8 µM |  | 
4 | CCN1CCC[C@@H]1CNC(=O)c1ccc2c(c1)NC(=O)/C(=C/c1ccccc1F)S2 |  |  |  |  |  |  | 0.9 µM | > 80 µM
5 | CO[C@H]1O[C@H](CSCCC#N)[C@@H](O)[C@H](O)[C@H]1O | 1020 µM | > 80% |  | > 0.8 | > 200 µM | 259 µM |  | 
6 | CO[C@H]1O[C@H](CSCCNC(=N)N)[C@@H](O)[C@H](O)[C@H]1O | 590 µM | > 80% |  | > 4.4 | > 200 µM | 45.6 µM |  | 
7 | CO[C@H]1O[C@H](CS(=O)(=O)CCC#N)[C@@H](O)[C@H](O)[C@H]1O | 960 µM | > 80% |  | > 2.9 | > 200 µM | 68.8 µM |  | 
8 | CO[C@H]1O[C@H](CSCCCN)[C@@H](O)[C@H](O)[C@H]1O | > 2000 µM | > 80% | < 80% | 0.4 | 129 µM | 289 µM |  | 
9 | CO[C@H]1O[C@H](CSCCN)[C@@H](O)[C@H](O)[C@H]1O | 1750 µM | > 80% |  | > 26 | > 2000 µM | 76.1 µM |  | 
10 | CO[C@H]1O[C@H](CS(=O)(=O)CCCN)[C@@H](O)[C@H](O)[C@H]1O | > 2000 µM | > 80% | < 80% | 1 | 35.4 µM | 34.4 µM |  | 
11 | CO[C@H]1O[C@H](CS(=O)(=O)CCCNC(=N)N)[C@@H](O)[C@H](O)[C@H]1O | 1570 µM | > 80% | < 80% | 0.5 | 22.3 µM | 42.9 µM |  | 
